Assay results published in US5512548A, “CETP inhibitor polypeptide, antibodies against the synthetic polypeptide and prophylactic and therapeutic anti-atherosclerosis treatments” (Southwest Foundation for Biomedical Research, priority 1994, dated 1996).

Test system: CETP
Experiment: Cholesteryl ester transfer assay (CE transfer from 3H CE-HDL3 to VLDL+LDL with LPDS as CETP source)
Format: biochemical, baboon (Papio sp.)
Conditions: electroeluted from gels, increasing concentrations, lipoproteins from low HDL1 baboons
Procedure: The CE transfer activity of a sample was assayed by a modification of a procedure described previously (Kushwaha et al, (1986), supra).
Briefly, ^3 H CE-labeled HDL3 containing 50-100 μg of CE from low HDL1 baboons was incubated with VLDL+LDL containing 100-300 μg CE in the presence of LPDS. The acceptor lipoproteins and the LPDS were obtained from low HDL1 baboon plasma (chow diet). In some cases the HDL3 was obtained from high HDL1 baboons maintained on the HCHF diet.
The incubations were carried out at 4° C. (control) and 37° C. for 4-6 hrs, and terminated by placing the samples on ice. The assay mixture was then ultracentrifuged to separate VLDL+LDL having a […], and the radioactivity in the lipoproteins was counted as described previously (Kushwaha et al, (1986), supra). Any difference observed in the radioactivity transferred from HDL to VLDL+LDL at 4° C. and 37° C. was attributed to CETP activity in the LPDS.
Time course experiments gave a linear response up to 7 hrs. Similarly, the CETP activity was linear with increasing LPDS, up to 140 μl LPDS, which was derived from an equivalent volume of plasma. […]
The percent difference between the control experiment and the assay with inhibitor peptide was expressed as the inhibitor activity. […]

Question: How did the “effect on the transfer of CE from HDL to VLDL+LDL (CETP activity)” value turn out when Albumin was run?
Answer: Its value is “no effect”.
